Data from US9474788B2, “Methods for the reactivation of latent HIV using cytosine methylation inhibitors and NF-KB activators” (priority 2010, dated 2016).
Where two headings read alike, the source gives them in different places.

Legend:
Format in all cases: cell-based
latent HIV-1 [1] = test system: latent HIV-1
Protocol: (§1) Jurkat and J-Lat cells were cultured in RPMI (Invitrogen) with 5% FBS (Gemini Bio-Products) and 5% Fetalplex (Gemini Bio-Products). For analysis of virus reactivation by flow cytometry, aza-CdR (Sigma) and TNF-α (Biosource) treatments were for 24 h, after which medium was replaced. Reactivation was assayed after an additional 48 h. For chromatin immunoprecipitation (ChIP) and bisulfite-mediated methylcytosine mapping, cells were treated for 30 h with aza-CdR. For cycloheximide experiments, cells were treated for 24 hours, either with or without 40 ng/ml cycloheximide.
J-Lat cells were transfected by electroporation using Kit R and program O-28 (Amaxa Biosystems). HIV-1 reactivation was assayed by flow cytometry four days post-transfection. […] Supernatant was harvested 48 h post-transfection and frozen at −80° C. in aliquots. Aliquots were thawed, diluted 1:160, and used to infect Jurkat T cells overnight at a multiplicity of 0.1 infectious units per cell with 2 ml supernatant per 1 million cells. Three days post-infection, GFP-negative and -positive cell populations were isolated by fluorescence-activated cell sorting (FACS). […] Cells were cotransfected with a plasmid encoding the tomato fluorescent protein and either methylated or unmethylated pEGFP-N1, and the tomato-positive population was analyzed for GFP expression. For measurement of J-Lat activation, cells were infected with undiluted virus and analyzed by flow cytometry 2 days post-infection.
Cell fluorescence was measured with the fluorescence activated cell sorter FACSCalibur or LSRII (BD Biosciences). Cell sorting was performed with the fluorescence activated cell sorting (FACS) Vantage DiVa (BD Biosciences). To phenotype CD4^+ T cells, the cells were stained with the following monoclonal antibodies (mAbs): phycoerythrin-conjugated (PE)—anti-CD4, TC—anti-CD45RA, or PE—anti-CXCR4 (Caltag). Flow cytometry and sorting data were analyzed with FlowJo software (Treestar) or Cellquest (BD Biosciences), in the case of primary cells. Analysis was restricted to the live population, as defined by the forward versus side scatter profile. Flowjo transforms fluorescence plots to a linear scale at the origin, permitting intelligible display of cells with low fluorescence.

HIV-1 CpG islands = assay: Bisulfite-mediated methylcytosine mapping of HIV-1 in J-Lat 6.3; conditions: depending on the CpG analyzed, 30 h treatment
Protocol: as §1
Sodium bisulfite treatment was performed according to the Pikaard protocol (on the internet at http://followed by www(dot)biology(dot)wustl(dot)edu/pikaard/PDFs and protocol files/bisulfite sequencing(dot)pdf) with minor modifications. Jurkat T cell DNA was digested overnight with Pst I and purified with the Qiaquick PCR Purification Kit (Qiagen). Bisulfite-treated DNA was amplified in nested PCR reactions with the following reaction conditions: denature (95° C., 5 minutes), cycle 35 times (95° C., 30 seconds then 60° C., 60 seconds), and extend (60° C., 7 minutes). […] Nucleotide sequence was determined of at least nine cloned inserts using the universal M13 reverse primer. The efficiency of sodium bisulfite conversion was calculated using the Quantification Tool for Methylation Analysis (QUMA) software.

latent HIV-1 [2] = assay: Latent HIV-1 reactivation in a polyclonal population of latently infected Jurkat T cells, GFP by flow cytometry; conditions: about two months after infection
Protocol: as §1
J-Lat cells were transfected by electroporation using Kit R and program O-28 (Amaxa Biosystems). […] Three days post-infection, GFP-negative and -positive cell populations were isolated by fluorescence-activated cell sorting (FACS). […] Cells were cotransfected with a plasmid encoding the tomato fluorescent protein and either methylated or unmethylated pEGFP-N1, and the tomato-positive population was analyzed for GFP expression. For measurement of J-Lat activation, cells were infected with undiluted virus and analyzed by flow cytometry 2 days post-infection.
Cell fluorescence was measured with the fluorescence activated cell sorter FACSCalibur or LSRII (BD Biosciences). Cell sorting was performed with the fluorescence activated cell sorting (FACS) Vantage DiVa (BD Biosciences). […]

HIV-1 CpG island 2 = assay: Chromatin immunoprecipitation of factor recruitment to the HIV-1 provirus in J-Lat 6.3
Protocol: as §1
ChIP was performed as described previously with modifications. J-Lat 6.3 cells Cells were diluted to 5×10^5 per ml, lysed, and sonicated (Model 500 Ultrasonic Dismembranator, Fisher Scientific). Lysates were incubated overnight with 5 μg of antibody against MBD2 (Upstate Cell Signaling Solutions cat. 07-198), HDAC2 (Santa Cruz Biotechnology cat. sc-7899) or Sp1 (Santa Cruz Biotechnology cat. sc-59). Immune complexes were recovered by incubation for 1 h with protein A agarose beads (Invitrogen). Immunoprecipitated DNA was quantified by quantitative PCR using the 7900HT Sequence Detection System (Applied Biosystems) and 2× Hot Sybr real time PCR kit (Molecular Cloning Laboratories). Negative control DNA was assayed using 5USBACT and 3USBACT as primers, CpG island 1 was assayed using oSK92 (5′-[…]-3′) (SEQ ID NO:23) and oSK93 (5′-[…]-3′) (SEQ ID NO:24) as primers, and CpG island 2 was assayed using oSK89 (5′-[…]-3′) (SEQ ID NO:25) and oSK90 (5′-[…]-3′) (SEQ ID NO:26) as primers. SDS 2.3 software (Applied Biosystems) was used to analyze precipitated DNA relative to input and to confirm the specificity of each PCR reaction by melting curve analysis.

HIV-1 transcription = assay: Reverse transcription and quantitative PCR of HIV-1 mRNA in J-Lat cells; conditions: 24 hours, 40 ng/ml cycloheximide
Protocol: as §1
J-Lat cells were transfected with short interfering RNAs (siRNAs) corresponding to the MBD2 mRNA or non-targeting control short interfering RNAs (siRNAs) (siGENOME SMARTpool or siCONTROL pool, Dharmacon) by electroporation using Kit R and program O-28 (Amaxa Biosystems). […] Quantitative PCR was performed with the 7900HT Sequence Detection System (Applied Biosystems) and the 2× Hot Sybr real time PCR kit (Molecular Cloning Laboratories), with each PCR reaction receiving 1/20 of the reverse transcription. […] SDS 2.3 software (Applied Biosystems) was used to quantify each cDNA relative to cyclophilin A and to confirm the specificity of each PCR reaction by melting curve analysis.

| Molecule | Reactivation of latent HIV-1, MFI, fold greater than PBS control (latent HIV-1 [1]; J-Lat cell line 6.3) [fold] | Reactivation of latent HIV-1, MFI, fold greater than PBS control (latent HIV-1 [1]; J-Lat cell line 8.4) [fold] | Reactivation of latent HIV-1, MFI, fold greater than PBS control (latent HIV-1 [1]; J-Lat cell line 9.2) [fold] | Reactivation of latent HIV-1, MFI, fold greater than PBS control (latent HIV-1 [1]; J-Lat cell line 15.4) [fold] | Effect on HIV-1 gene expression (mean fluorescence intensity or proportion of GFP-positive cells) (latent HIV-1 [1]; J-Lat lines 6.3, 8.4, 9.2 and 15.4) | Decrease in methylation (HIV-1 CpG islands) [%] | Proportion of cells with active virus, fold greater (latent HIV-1 [2]) | HDAC2 recruitment to CpG island 2 (HIV-1 CpG island 2) | MBD2 recruitment to CpG island 2 (HIV-1 CpG island 2) | Sp1 recruitment to CpG island 2 (HIV-1 CpG island 2) | HIV-1 transcription in the presence of cycloheximide (HIV-1 transcription) | GFP expression after treatment of J-Lat cells with TNF-α (latent HIV-1 [1]; 40 ng/ml cycloheximide) | Reactivation of latent virus (latent HIV-1 [1]; J-Lat A2 (HIV-derived vector encoding only viral promoter and Tat)) |
| --- | --- | --- | --- | --- | --- | --- | --- | --- | --- | --- | --- | --- | --- |
| Nc1ncn([C@H]2C[C@H](O)[C@@H](CO)O2)c(=O)n1 [Aza-CdR, 5-aza-2′ deoxycytidine] | 1.8 | 1.6 | 1.1 | 1 | little effect | ≤ 50 | two-fold greater proportion of cells with active virus | lost | eliminated | increased Sp1 recruitment | still induced HIV-1 transcription | – | – |
| C[C@@H]1C[C@@H]([C@H](O)CC2CC(=O)NC(=O)C2)C(=O)[C@@H](C)C1 [Cycloheximide, cycloheximide] | – | – | – | – | – | – | – | – | – | – | – | inhibition of GFP expression | – |
| TNF-a | 7.1 | 2.5 | 2.3 | 1.7 | – | – | 1.5 fold | – | – | – | – | – | reactivated the majority of latent virus |
